In ChEMBL document CHEMBL1146014, “Design and synthesis of selective alpha1B adrenoceptor antagonists” (Bioorg Med Chem Lett, 2006):

Tests used:
[1] = biological target: T1, Alpha-1A adrenergic receptor (Rattus norvegicus, UniProt P43140); assay: Displacement of [3H]prazosin from adrenergic alpha-1A receptor in rat submaxillary gland membranes; assay type: cell membranes, Membrane
T1 sequence (P43140 whole entry): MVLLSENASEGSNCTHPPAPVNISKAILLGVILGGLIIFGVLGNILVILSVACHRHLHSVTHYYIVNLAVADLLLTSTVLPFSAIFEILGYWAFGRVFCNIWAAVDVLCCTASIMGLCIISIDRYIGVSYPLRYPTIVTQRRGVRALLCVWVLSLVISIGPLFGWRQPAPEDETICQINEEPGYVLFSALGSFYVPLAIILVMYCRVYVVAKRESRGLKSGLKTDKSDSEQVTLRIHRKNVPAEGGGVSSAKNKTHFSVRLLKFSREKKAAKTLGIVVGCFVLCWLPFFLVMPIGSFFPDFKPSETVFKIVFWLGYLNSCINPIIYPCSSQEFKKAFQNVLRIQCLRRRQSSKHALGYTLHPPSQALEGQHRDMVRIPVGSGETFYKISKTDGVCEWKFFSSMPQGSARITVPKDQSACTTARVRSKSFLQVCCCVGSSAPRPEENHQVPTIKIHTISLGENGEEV

[2] = biological target: T2, Alpha-1B adrenergic receptor (Rattus norvegicus, UniProt P15823); assay: Displacement of [3H]prazosin from adrenergic alpha-1B receptor in rat liver membranes; assay type: cell membranes, Membrane
T2 sequence (P15823 whole entry): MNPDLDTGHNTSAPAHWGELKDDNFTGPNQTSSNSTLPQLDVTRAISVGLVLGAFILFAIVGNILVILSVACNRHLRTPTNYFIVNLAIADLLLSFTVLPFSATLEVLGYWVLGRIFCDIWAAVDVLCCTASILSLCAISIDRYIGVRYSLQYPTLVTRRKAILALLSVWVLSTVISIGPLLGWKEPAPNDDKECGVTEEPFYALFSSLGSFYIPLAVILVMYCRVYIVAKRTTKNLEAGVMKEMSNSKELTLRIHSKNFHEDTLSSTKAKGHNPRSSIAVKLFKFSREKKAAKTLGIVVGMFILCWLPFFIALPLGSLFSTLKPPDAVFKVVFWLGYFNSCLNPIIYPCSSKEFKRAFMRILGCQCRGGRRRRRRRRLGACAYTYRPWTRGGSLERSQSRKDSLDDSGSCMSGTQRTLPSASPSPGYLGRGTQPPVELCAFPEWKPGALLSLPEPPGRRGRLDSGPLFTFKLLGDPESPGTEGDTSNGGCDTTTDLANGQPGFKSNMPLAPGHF

[3] = biological target: T3, Adrenergic receptor alpha-2 (Rattus norvegicus, UniProt P22086+P19328+P22909); assay: Binding affinity to rat adrenergic alpha2 receptor; assay type: protein assay
T3 sequence (P22086 whole entry): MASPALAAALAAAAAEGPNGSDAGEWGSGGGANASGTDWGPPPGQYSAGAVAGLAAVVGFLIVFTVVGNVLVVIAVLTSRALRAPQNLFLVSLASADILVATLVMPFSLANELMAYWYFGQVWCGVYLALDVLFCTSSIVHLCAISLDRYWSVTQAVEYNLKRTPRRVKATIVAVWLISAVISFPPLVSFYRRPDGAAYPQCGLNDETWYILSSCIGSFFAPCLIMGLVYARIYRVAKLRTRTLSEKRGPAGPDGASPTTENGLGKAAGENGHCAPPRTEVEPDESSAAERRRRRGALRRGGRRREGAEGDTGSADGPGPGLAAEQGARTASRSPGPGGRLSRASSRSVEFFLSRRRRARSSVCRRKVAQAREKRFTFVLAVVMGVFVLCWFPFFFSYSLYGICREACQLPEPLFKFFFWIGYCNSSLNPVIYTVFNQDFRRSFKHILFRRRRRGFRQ
T3 sequence (P19328 whole entry): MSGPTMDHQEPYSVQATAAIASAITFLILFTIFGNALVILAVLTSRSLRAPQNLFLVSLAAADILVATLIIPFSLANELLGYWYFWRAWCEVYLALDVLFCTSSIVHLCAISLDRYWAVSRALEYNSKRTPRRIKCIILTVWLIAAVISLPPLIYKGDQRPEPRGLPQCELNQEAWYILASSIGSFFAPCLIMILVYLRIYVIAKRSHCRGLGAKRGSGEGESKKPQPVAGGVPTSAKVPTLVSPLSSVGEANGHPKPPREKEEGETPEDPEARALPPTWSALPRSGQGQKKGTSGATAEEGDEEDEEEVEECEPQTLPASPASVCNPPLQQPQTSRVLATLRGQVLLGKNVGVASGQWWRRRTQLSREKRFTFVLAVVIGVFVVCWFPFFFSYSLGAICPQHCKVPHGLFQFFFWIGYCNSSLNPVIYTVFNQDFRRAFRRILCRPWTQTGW
T3 sequence (P22909 whole entry): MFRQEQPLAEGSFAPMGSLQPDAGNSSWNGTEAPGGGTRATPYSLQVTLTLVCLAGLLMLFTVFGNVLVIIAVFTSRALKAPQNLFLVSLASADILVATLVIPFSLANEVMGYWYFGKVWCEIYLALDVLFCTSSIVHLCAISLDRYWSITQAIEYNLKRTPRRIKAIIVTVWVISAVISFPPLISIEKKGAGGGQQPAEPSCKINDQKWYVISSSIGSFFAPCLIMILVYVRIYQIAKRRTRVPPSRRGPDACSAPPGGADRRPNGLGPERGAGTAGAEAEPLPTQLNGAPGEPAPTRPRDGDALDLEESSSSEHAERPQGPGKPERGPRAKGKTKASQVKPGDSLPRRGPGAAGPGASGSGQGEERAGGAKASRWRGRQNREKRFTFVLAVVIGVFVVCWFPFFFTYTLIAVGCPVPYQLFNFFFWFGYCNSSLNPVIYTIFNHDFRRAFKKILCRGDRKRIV

Adrenergic receptor beta = Adrenergic receptor beta (Rattus norvegicus, UniProt P18090+P10608+P26255); assay: Binding affinity to rat adrenergic beta receptor; assay type: protein assay
[4] = biological target: T4, Alpha-1D adrenergic receptor (Homo sapiens, UniProt P25100); assay: Binding affinity to human adrenergic Alpha-1D receptor
T4 sequence (P25100 whole entry): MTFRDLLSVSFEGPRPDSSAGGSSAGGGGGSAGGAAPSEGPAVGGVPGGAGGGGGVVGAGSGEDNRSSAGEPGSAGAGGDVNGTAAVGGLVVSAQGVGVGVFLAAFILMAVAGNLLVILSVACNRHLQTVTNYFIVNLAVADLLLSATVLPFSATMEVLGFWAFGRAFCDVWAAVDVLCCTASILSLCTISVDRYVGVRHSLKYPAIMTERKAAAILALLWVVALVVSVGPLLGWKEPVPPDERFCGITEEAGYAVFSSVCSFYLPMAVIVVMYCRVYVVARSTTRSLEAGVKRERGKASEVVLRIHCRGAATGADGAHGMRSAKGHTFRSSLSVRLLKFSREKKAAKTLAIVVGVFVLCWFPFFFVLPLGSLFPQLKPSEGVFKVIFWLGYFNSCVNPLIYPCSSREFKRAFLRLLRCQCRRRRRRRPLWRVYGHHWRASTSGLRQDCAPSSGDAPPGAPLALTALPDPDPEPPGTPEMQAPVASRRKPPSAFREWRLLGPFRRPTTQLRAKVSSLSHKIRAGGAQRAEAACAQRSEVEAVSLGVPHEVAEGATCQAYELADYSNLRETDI

In the case of `Cn1cc(C2CCN(CCCN3CCCCC3)CC2)c2ccccc21`, the Ki [1] is reported as 480 nM and the Ki [2] is reported as 60 nM.

`c1ccc(CC2CCN(CCCN3CCCCC3)CC2)cc1` showed a Ki [2] of 1120 nM.

For `Cl.Cl.Fc1ccc2c(C3CCN(CCCN4CCCCC4)CC3)c[nH]c2c1`, the Ki [3] was 140 nM, the Ki (Adrenergic receptor beta) was over 1000 nM and the Ki [4] was 22 nM.

`Fc1ccc2[nH]cc(C3CCN(CCCN4CCCCC4)CC3)c2c1` gave a Ki [1] of 690 nM and a Ki [2] of 16 nM.

In the case of `Oc1nc2ccccc2n1C1CCN(CCCN2CCCCC2)CC1`, the Ki [1] is reported as 900 nM and the Ki [2] is reported as 70 nM.

Work on `c1ccc2c(C3CCN(CCCN4CCCCC4)CC3)noc2c1` yielded a Ki [1] of 57 nM and a Ki [2] of 14 nM.

`Cl.Cl.c1ccc2c(C3CCN(CCCN4CCCCC4)CC3)c[nH]c2c1` gave a Ki [3] of 370 nM, a Ki [1] of 120 nM and a Ki (Adrenergic receptor beta) of over 1000 nM. The Ki [4] was 69 nM and the Ki [2] was 3 nM.

Work on `c1ccc2c(C3CCN(CCCCN4CCCCC4)CC3)c[nH]c2c1` yielded a Ki [1] of 56 nM and a Ki [2] of 1.1 nM.

Work on `c1ccc2c(C3CCN(CCCN4CCCCC4)CC3)coc2c1` yielded a Ki [1] of 60 nM and a Ki [2] of 7.7 nM.

With `Cl.Cl.c1ccc2c(C3CCN(CCCCCN4CCCCC4)CC3)c[nH]c2c1` the Ki [3] was 355 nM, the Ki (Adrenergic receptor beta) was over 1000 nM and the Ki [4] was 37 nM.

`Cc1[nH]c2ccccc2c1C1CCN(CCCN2CCCCC2)CC1` showed a Ki [1] of 1900 nM and a Ki [2] of 71 nM.
